Reference: PubChem BioAssay AID1918932 (Molecular Pharmacology Branch, DTP, NCI, 2023)
Where “and” joins values, the source holds several entries; their conditions need not be identical. Identical values can stand only once.

Test system: 171881-019-R-J1-PDC complex spheroid viability
Assay: Anticancer human tumor 171881-019-R-J1-PDC patient-derived invasive breast carcinoma cell line growth inhibition
Conditions: for viability, T/C: stronger effect = lower value
Outline: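 Complex spheroids of tumor cells with HUVEC and human MSCs, exposed to iadademstat combined with other agents. Each agent tested in half-log steps from near clinical Cmax (else 10 microM top), DMSO ≤0.25%.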

[1] = curve of first compound, second compound 0.1 µM
[2] = curve of first compound, second compound 0.316 µM
[3] = curve of first compound, second compound 1 µM
[4] = curve of first compound, second compound 3.16 µM
[5] = curve of first compound, second compound 10 µM
[6] = second compound 0.1 µM, first compound 0.00949 µM
[7] = second compound 0.1 µM, first compound 0.03 µM
[8] = second compound 0.1 µM, first compound 0.0949 µM
[9] = second compound 0.1 µM, first compound 0.3 µM
[10] = second compound 0.316 µM, first compound 0.00949 µM
[11] = second compound 0.316 µM, first compound 0.03 µM
[12] = second compound 0.316 µM, first compound 0.0949 µM
[13] = second compound 0.316 µM, first compound 0.3 µM
[14] = second compound 1 µM, first compound 0.00949 µM
[15] = second compound 1 µM, first compound 0.03 µM
[16] = second compound 1 µM, first compound 0.0949 µM
[17] = second compound 1 µM, first compound 0.3 µM
[18] = second compound 3.16 µM, first compound 0.00949 µM
[19] = second compound 3.16 µM, first compound 0.03 µM
[20] = second compound 3.16 µM, first compound 0.0949 µM
[21] = second compound 3.16 µM, first compound 0.3 µM
[22] = second compound 10 µM, first compound 0.00949 µM
[23] = second compound 10 µM, first compound 0.03 µM
[24] = second compound 10 µM, first compound 0.0949 µM
[25] = second compound 10 µM, first compound 0.3 µM
[26] = second compound 0.1 µM, first compound 0.000949 µM
[27] = second compound 0.1 µM, first compound 0.003 µM
[28] = second compound 0.316 µM, first compound 0.000949 µM
[29] = second compound 0.316 µM, first compound 0.003 µM
[30] = second compound 1 µM, first compound 0.000949 µM
[31] = second compound 1 µM, first compound 0.003 µM
[32] = second compound 3.16 µM, first compound 0.000949 µM
[33] = second compound 3.16 µM, first compound 0.003 µM
[34] = second compound 10 µM, first compound 0.000949 µM
[35] = second compound 10 µM, first compound 0.003 µM
[36] = second compound 0.1 µM, first compound 0.0316 µM
[37] = second compound 0.1 µM, first compound 0.1 µM
[38] = second compound 0.1 µM, first compound 0.316 µM
[39] = second compound 0.1 µM, first compound 1 µM
[40] = second compound 0.1 µM, first compound 3.16 µM
[41] = second compound 0.1 µM, first compound 10 µM
[42] = second compound 0.316 µM, first compound 0.0316 µM
[43] = second compound 0.316 µM, first compound 0.1 µM
[44] = second compound 0.316 µM, first compound 0.316 µM
[45] = second compound 0.316 µM, first compound 1 µM
[46] = second compound 0.316 µM, first compound 3.16 µM
[47] = second compound 0.316 µM, first compound 10 µM
[48] = second compound 1 µM, first compound 0.0316 µM
[49] = second compound 1 µM, first compound 0.1 µM
[50] = second compound 1 µM, first compound 0.316 µM
[51] = second compound 1 µM, first compound 1 µM
[52] = second compound 1 µM, first compound 3.16 µM
[53] = second compound 1 µM, first compound 10 µM
[54] = second compound 3.16 µM, first compound 0.0316 µM
[55] = second compound 3.16 µM, first compound 0.1 µM
[56] = second compound 3.16 µM, first compound 0.316 µM
[57] = second compound 3.16 µM, first compound 1 µM
[58] = second compound 3.16 µM, first compound 3.16 µM
[59] = second compound 3.16 µM, first compound 10 µM
[60] = second compound 10 µM, first compound 0.0316 µM
[61] = second compound 10 µM, first compound 0.1 µM
[62] = second compound 10 µM, first compound 0.316 µM
[63] = second compound 10 µM, first compound 1 µM
[64] = second compound 10 µM, first compound 3.16 µM
[65] = second compound 10 µM, first compound 10 µM

SMILES: CCN(c1cc(-c2ccc(CN3CCOCC3)cc2)cc(C(=O)NCc2c(C)cc(C)[nH]c2=O)c1C)C1CCOCC1
- viability, T/C (compound 0.00949 µM): 81.1% and 94.4%
- viability, T/C (compound 0.03 µM): 86.6% and 102%
- viability, T/C (compound 0.0949 µM): 92.5% and 86.2%
- viability, T/C (compound 0.3 µM): 102% and 82.3%
- viability, T/C (compound 0.949 µM): 89.9% and 64.9%
- viability, T/C (compound 3 µM): 46.9% and 40.9%
- IC50 (curve of compound): 2760 nM and 1950 nM

SMILES: COc1cc(C2c3cc4c(cc3C(OC3OC5COC(C)OC5C(O)C3O)C3COC(=O)C23)OCO4)cc(OC)c1O (centres undefined) + NC1CCC(NC2CC2c2ccccc2)CC1
- IC50 [1]: 439 nM
- IC50 [2]: 440 nM
- IC50 [3]: 511 nM
- IC50 [4]: 536 nM
- IC50 [5]: 649 nM
- viability, T/C [6]: 72.8%
- viability, T/C [7]: 90.8%
- viability, T/C [8]: 87.9%
- viability, T/C [9]: 56.8%
- viability, T/C (second compound 0.1 µM, first compound 0.949 µM): 33.2%
- viability, T/C (second compound 0.1 µM, first compound 3 µM): 18.5%
- viability, T/C [10]: 76.8%
- viability, T/C [11]: 98.2%
- viability, T/C [12]: 94%
- viability, T/C [13]: 58.1%
- viability, T/C (second compound 0.316 µM, first compound 0.949 µM): 33.1%
- viability, T/C (second compound 0.316 µM, first compound 3 µM): 18.4%
- viability, T/C [14]: 87.6%
- viability, T/C [15]: 87.8%
- viability, T/C [16]: 86.5%
- viability, T/C [17]: 57.9%
- viability, T/C (second compound 1 µM, first compound 0.949 µM): 39%
- viability, T/C (second compound 1 µM, first compound 3 µM): 19.8%
- viability, T/C [18]: 80.7%
- viability, T/C [19]: 99.1%
- viability, T/C [20]: 96.4%
- viability, T/C [21]: 60.3%
- viability, T/C (second compound 3.16 µM, first compound 0.949 µM): 40.8%
- viability, T/C (second compound 3.16 µM, first compound 3 µM): 22.2%
- viability, T/C [22]: 80.9%
- viability, T/C [23]: 104%
- viability, T/C [24]: 95%
- viability, T/C [25]: 67.8%
- viability, T/C (second compound 10 µM, first compound 0.949 µM): 42.5%
- viability, T/C (second compound 10 µM, first compound 3 µM): 25.8%

SMILES: Nc1ncn(C2CC(O)C(CO)S2)c(=O)n1 (centres undefined)
- viability, T/C (compound 0.000949 µM): 95.1% and 102%
- viability, T/C (compound 0.003 µM): 98% and 105%
- viability, T/C (compound 0.00949 µM): 136% and 94.5%
- viability, T/C (compound 0.03 µM): 124% and 76.7%
- viability, T/C (compound 0.0949 µM): 73% and 53.8%
- viability, T/C (compound 0.3 µM): 38% and 34.8%
- IC50 (curve of compound): 202 nM and 115 nM

SMILES: CCc1c2c(nc3ccc(O)cc13)-c1cc3c(c(=O)n1C2)COC(=O)[C@]3(O)CC + NC1CC1c1ccc(-c2cccc(O)c2)cc1
- IC50 [1]: < 0.949 nM
- IC50 [2]: < 0.949 nM
- IC50 [3]: < 0.949 nM
- IC50 [4]: < 0.949 nM
- IC50 [5]: < 0.949 nM
- viability, T/C [26]: 44.7%
- viability, T/C [27]: 30.8%
- viability, T/C [6]: 25.1%
- viability, T/C [7]: 15.4%
- viability, T/C [8]: 21.5%
- viability, T/C [9]: 19.3%
- viability, T/C [28]: 49%
- viability, T/C [29]: 37.4%
- viability, T/C [10]: 17.8%
- viability, T/C [11]: 20%
- viability, T/C [12]: 16.7%
- viability, T/C [13]: 22.7%
- viability, T/C [30]: 36.3%
- viability, T/C [31]: 22.2%
- viability, T/C [14]: 8.77%
- viability, T/C [15]: 16.8%
- viability, T/C [16]: 13.8%
- viability, T/C [17]: 18.6%
- viability, T/C [32]: 22.5%
- viability, T/C [33]: 22.6%
- viability, T/C [18]: 5.26%
- viability, T/C [19]: 13.8%
- viability, T/C [20]: 14.6%
- viability, T/C [21]: 5.74%
- viability, T/C [34]: 26.9%
- viability, T/C [35]: 14.8%
- viability, T/C [22]: 2.56%
- viability, T/C [23]: 8.5%
- viability, T/C [24]: 7.12%
- viability, T/C [25]: 4.11%

SMILES: CC1COCCN1c1cc(C2(S(C)(=N)=O)CC2)nc(-c2ccnc3[nH]ccc23)n1 (centres undefined) + NC1CC1c1ccc(-c2cccc(O)c2)cc1
- IC50 [1]: 1370 nM
- IC50 [2]: 1450 nM
- IC50 [3]: 1470 nM
- IC50 [4]: 1410 nM
- IC50 [5]: 1150 nM
- viability, T/C [36]: 103%
- viability, T/C [37]: 102%
- viability, T/C [38]: 97.9%
- viability, T/C [39]: 59.6%
- viability, T/C [40]: 22.3%
- viability, T/C [41]: 9.45%
- viability, T/C [42]: 106%
- viability, T/C [43]: 103%
- viability, T/C [44]: 99.3%
- viability, T/C [45]: 61.1%
- viability, T/C [46]: 24.7%
- viability, T/C [47]: 9.56%
- viability, T/C [48]: 103%
- viability, T/C [49]: 104%
- viability, T/C [50]: 91.1%
- viability, T/C [51]: 63.5%
- viability, T/C [52]: 24.3%
- viability, T/C [53]: 9.48%
- viability, T/C [54]: 99.5%
- viability, T/C [55]: 104%
- viability, T/C [56]: 96.9%
- viability, T/C [57]: 61.5%
- viability, T/C [58]: 21.8%
- viability, T/C [59]: 8.64%
- viability, T/C [60]: 86.4%
- viability, T/C [61]: 87.7%
- viability, T/C [62]: 81.6%
- viability, T/C [63]: 53.3%
- viability, T/C [64]: 21.1%
- viability, T/C [65]: 8.98%

SMILES: Nc1ccn(C2OC(CO)C(O)C2(F)F)c(=O)n1 (centres undefined) + NC1CC1c1ccc(-c2cccc(O)c2)cc1
- IC50 [1]: > 300 nM
- IC50 [2]: > 300 nM
- IC50 [3]: > 300 nM
- IC50 [4]: > 300 nM
- IC50 [5]: > 300 nM
- viability, T/C [26]: 65.1%
- viability, T/C [27]: 61.8%
- viability, T/C [6]: 57.8%
- viability, T/C [7]: 61.2%
- viability, T/C [8]: 65%
- viability, T/C [9]: 64.1%
- viability, T/C [28]: 70.9%
- viability, T/C [29]: 63.8%
- viability, T/C [10]: 59.7%
- viability, T/C [11]: 60.9%
- viability, T/C [12]: 66.6%
- viability, T/C [13]: 64.1%
- viability, T/C [30]: 76.6%
- viability, T/C [31]: 62.6%
- viability, T/C [14]: 59.5%
- viability, T/C [15]: 62.2%
- viability, T/C [16]: 62%
- viability, T/C [17]: 63.8%
- viability, T/C [32]: 74.8%
- viability, T/C [33]: 58.3%
- viability, T/C [18]: 57.8%
- viability, T/C [19]: 56.6%
- viability, T/C [20]: 60.2%
- viability, T/C [21]: 63.2%
- viability, T/C [34]: 65.7%
- viability, T/C [35]: 61.2%
- viability, T/C [22]: 52.4%
- viability, T/C [23]: 55.6%
- viability, T/C [24]: 59.1%
- viability, T/C [25]: 56%

SMILES: CC(C)c1c(-c2ccccc2)nc2c(C#N)c[nH]n2c1=O + NC1CC1c1ccc(-c2cccc(O)c2)cc1
- IC50 [1]: 4990 nM
- IC50 [2]: 5400 nM
- IC50 [3]: 5360 nM
- IC50 [4]: 5450 nM
- IC50 [5]: 4950 nM
- viability, T/C [36]: 104%
- viability, T/C [37]: 103%
- viability, T/C [38]: 93%
- viability, T/C [39]: 87.3%
- viability, T/C [40]: 72.1%
- viability, T/C [41]: 19.8%
- viability, T/C [42]: 102%
- viability, T/C [43]: 102%
- viability, T/C [44]: 95.8%
- viability, T/C [45]: 90.4%
- viability, T/C [46]: 75.5%
- viability, T/C [47]: 22.1%
- viability, T/C [48]: 108%
- viability, T/C [49]: 101%
- viability, T/C [50]: 93.9%
- viability, T/C [51]: 89.5%
- viability, T/C [52]: 75.7%
- viability, T/C [53]: 22.5%
- viability, T/C [54]: 103%
- viability, T/C [55]: 98.6%
- viability, T/C [56]: 97%
- viability, T/C [57]: 87.4%
- viability, T/C [58]: 77.1%
- viability, T/C [59]: 22%
- viability, T/C [60]: 85.7%
- viability, T/C [61]: 81.9%
- viability, T/C [62]: 81.4%
- viability, T/C [63]: 80.5%
- viability, T/C [64]: 70.6%
- viability, T/C [65]: 18.1%
